Assays:
Assay type in all cases: physicochemical
[1] = Adsorption of compound 1 onto sterile filters (assay in filtrate of formulation II)
Experimental: Formulation II comprising compound 1 was prepared as indicated above and filtered using selected sterile filters. Adsorption of compound 1 was determined before and after filtration using different filter types. Table 3 indicates the results of adsorption experiments using different filters.
Only hydrophobic filters show a low amount of compound 1 adsorbed onto the filter material.

[2] = Particulate matter testing of formulation I (HIAC Royco Liquid Particle Counting System); conditions: up to 8 hours
Experimental: Solubility of the active was tested by visual inspection using an illuminated magnifying glass with black background and confirmed by experiments assessing particulate matter using the HIAC Royco, Liquid Particle Counting System, Model 9703.
The formation of particles was assessed using the HIAC Royco, Liquid Particle Counting System, Model 9703 and in addition to the channels normally inspected (10 μm and 25 μm), also the smaller channels (2 μm and 5 μm) were used to assess the stability of the formulation. The formulation I was sterile filtered and inspected at timepoint 1 hour and 8 hours.
Table 2 indicates the results of particulate matter testing up to 8 hours of 3 individually manufactured batches
Since the handling of the solutions was made under normal laboratory conditions, the particle background measured in the sterile filtered solutions have an exogenous nature.

[3] = Stability of formulation comprising HCl salt of compound 1 for 8 hours at room temperature (HPLC assay); conditions: for assay of HCl salt of compound 1, batch 01 / assay of HCl salt of compound 1, batch 02 / assay of HCl salt of compound 1, batch 03 / assay of HCl salt of compound 1, mean [%]: formulation I, 5.51 μg/mL; for assay of HCl salt of compound 1, mean [%]: mean of 3 batches
Experimental: Since solutions of stilbenes are light sensitive, the solutions were stored under light protection.
A solution was prepared containing 5.51 μg/mL HCl salt of compound 1 as in formulation I. Assay was analysed after different timepoints. Three individual batches were prepared and analysed for assay and particulate matter. From these solutions samples were taken and analysed by HPLC.
Table 1 indicates the results of stability testing up to 8 hours of 3 individually manufactured batches.

Analysis of assay in filtrate ([1]; Millipore Millex 0.2 μm, Order No SLGV013SL, PVDF, hydrophobic material rendered hydrophilic by surface modification): 97.3% | Analysis of assay in filtrate ([1]; Sartorius Minisart 0.2 μm (blue), Order No 16534, Celluloseacetat, hydrophylic): 53% | Analysis of assay in filtrate ([1]; Sartorius Minisart HY 0.2 μm, Order No 16596, PTFE, hydrophobic): 96.5% | Analysis of assay in filtrate ([1]; Sartorius Minisart High Flow 0.2 μm, Order No 16532, PES, hydrophobic): 75% | amount adsorbed onto the filter material ([1]; only hydrophobic filters): low amount | chemical stability in the formulation ([3]; HCl salt, 8 hours): chemically stable | assay of HCl salt of compound 1, batch 01 ([3]; time 1 hour): 100.2% | assay of HCl salt of compound 1, batch 02 ([3]; time 1 hour): 98.3% | assay of HCl salt of compound 1, batch 03 ([3]; time 1 hour): 96.9% | assay of HCl salt of compound 1, mean [%] ([3]; time 1 hour): 98.5% | assay of HCl salt of compound 1, batch 01 ([3]; time 2 hours): 101.2% | assay of HCl salt of compound 1, batch 02 ([3]; time 2 hours): 98.4% | assay of HCl salt of compound 1, batch 03 ([3]; time 2 hours): 97.17% | assay of HCl salt of compound 1, mean [%] ([3]; time 2 hours): 98.9% | assay of HCl salt of compound 1, batch 01 ([3]; time 3 hours): 101.1% | assay of HCl salt of compound 1, batch 02 ([3]; time 3 hours): 98.7% | assay of HCl salt of compound 1, batch 03 ([3]; time 3 hours): 96.2% | assay of HCl salt of compound 1, mean [%] ([3]; time 3 hours): 98.7% | assay of HCl salt of compound 1, batch 01 ([3]; time 4 hours): 101.2% | assay of HCl salt of compound 1, batch 02 ([3]; time 4 hours): 98% | assay of HCl salt of compound 1, batch 03 ([3]; time 4 hours): 97.4% | assay of HCl salt of compound 1, mean [%] ([3]; time 4 hours): 98.9% | assay of HCl salt of compound 1, batch 01 ([3]; time 5 hours): 101.5% | assay of HCl salt of compound 1, batch 02 ([3]; time 5 hours): 98.6% | assay of HCl salt of compound 1, batch 03 ([3]; time 5 hours): 96.6% | assay of HCl salt of compound 1, mean [%] ([3]; time 5 hours): 98.9% | assay of HCl salt of compound 1, batch 01 ([3]; time 6 hours): 101.5% | assay of HCl salt of compound 1, batch 02 ([3]; time 6 hours): 98.7% | assay of HCl salt of compound 1, batch 03 ([3]; time 6 hours): 95.7% | assay of HCl salt of compound 1, mean [%] ([3]; time 6 hours): 98.6% | assay of HCl salt of compound 1, batch 01 ([3]; time 7 hours): 101.7% | assay of HCl salt of compound 1, batch 02 ([3]; time 7 hours): 98.5% | assay of HCl salt of compound 1, batch 03 ([3]; time 7 hours): 96.5% | assay of HCl salt of compound 1, mean [%] ([3]; time 7 hours): 98.9% | assay of HCl salt of compound 1, batch 01 ([3]; time 8 hours): 102.7% | assay of HCl salt of compound 1, batch 02 ([3]; time 8 hours): 98.7% | assay of HCl salt of compound 1, batch 03 ([3]; time 8 hours): 96.5% | assay of HCl salt of compound 1, mean [%] ([3]; time 8 hours): 99.3%
SMILES: CNc1ccc(/C=C/c2ccc(OCCOCCOCCF)cc2)cc1 [Compound 1]
dissolution state / precipitation in formulation [2]: remains dissolved and is not precipitating
